Target: T1, phosphatase ABI1 via the co-regulator RCAR11/PYR1 (Arabidopsis thaliana, UniProt O49686+P49597)
T1 sequence (O49686 1-191): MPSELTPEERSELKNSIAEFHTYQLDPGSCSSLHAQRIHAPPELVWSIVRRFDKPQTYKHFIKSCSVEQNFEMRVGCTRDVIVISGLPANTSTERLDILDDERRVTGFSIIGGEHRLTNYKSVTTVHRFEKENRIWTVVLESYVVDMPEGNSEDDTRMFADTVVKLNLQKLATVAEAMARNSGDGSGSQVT
T1 sequence (P49597 1-434): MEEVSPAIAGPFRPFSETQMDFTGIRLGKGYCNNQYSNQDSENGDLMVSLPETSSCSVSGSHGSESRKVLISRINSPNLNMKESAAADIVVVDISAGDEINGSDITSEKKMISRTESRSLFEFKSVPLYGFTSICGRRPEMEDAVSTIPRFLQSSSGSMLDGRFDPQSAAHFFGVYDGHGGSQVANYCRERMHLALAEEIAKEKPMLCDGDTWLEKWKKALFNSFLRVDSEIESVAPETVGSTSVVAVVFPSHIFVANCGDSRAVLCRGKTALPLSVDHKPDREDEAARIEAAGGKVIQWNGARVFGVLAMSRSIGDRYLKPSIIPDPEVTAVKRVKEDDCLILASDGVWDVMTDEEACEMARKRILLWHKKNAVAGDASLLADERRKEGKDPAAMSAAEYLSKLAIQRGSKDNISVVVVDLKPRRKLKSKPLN
Experiment: In vitro inhibition of the phosphatase ABI1 via the co-regulator RCAR11/PYR1, MUP dephosphorylation
Type: biochemical
Design: dose or concentration left out as unconfirmed
Settings: in a solution of DMSO and water; fluorescence at 460 nm
Text: Effects of the phytohormone abscisic acid (ABA) on the behavior of plants under abiotic stress and the mechanism of action of ABA are described in the literature (cf. Abrams et al., WO97/23441, Park et al. Science, 2009, 324, 1068; Grill et al. Science, 2009, 324, 1064; Tanokura et al. Biophysics, 2011, 7, 123; Schroeder et al. Plant J. 2010, 61, 290). Therefore, it is possible with the aid of a suitable in vitro test system to derive a correlation between the action of ABA and the stress response of a plant under abiotic stress. In the event of water deficiency (drought stress), plants form the phytohormone abscisic acid (ABA). This binds, along with a co-regulator (Regulatory Component of ABA-Receptor=RCAR according to Grill et al. Science, 2009, 324, 1064 or PYR/PYL according to Cutler et al. Science, 2009, 324, 1068), to a phosphatase (e.g. ABI1, a type 2C protein phosphatase, also abbreviated to PP2C) and inhibits its activity. As a result, a “downstream” kinase (e.g. SnRK2) is no longer dephosphorylated. This kinase, which is thus active, via phosphorylation of transcription factors (e.g. AREB/ABF, cf. Yoshida et al., 2010, 61, 672), switches on a genetic protection program to increase drought stress tolerance. The assay described hereinafter utilizes the inhibition of the phosphatase ABI1 via the co-regulator RCAR11/PYR1 aus Arabidopsis thaliana. For the determination of activity, the dephosphorylation of 4-methylumbelliferyl phosphate (MUP) was measured at 460 nm. The in vitro assay was conducted in Greiner 384-well PS microplates F-well, using two controls: a) 0.5% dimethyl sulfoxide (DMSO) and b) 5 μM abscisic acid (ABA). The assay described here was generally conducted with substance concentrations of the appropriate chemical test substances in a concentration range of 0.1 μM to 100 μM in a solution of DMSO and water. The substance solution thus obtained, if necessary, was stirred with esterase from porcine liver (EC 3.1.1.1) at room temperature for 3 h and centrifuged at 4000 rpm for 30 min. A total volume of 45 μl was introduced into each cavity of the microplate, having the following composition: • 1) 5 μl of substance solution, i.e. a) DMSO 5% or b) abscisic acid solution or c) the corresponding example compound of the general formula (I) dissolved in 5% DMSO. • 2) 20 μl of enzyme buffer mix, composed of a) 40% by vol. of enzyme buffer (10 mL contain equal proportions by volume of 500 mM Tris-HCl pH 8, 500 mM NaCl, 3.33 mM MnCl2, 40 mM dithiothreitol (DTT)), b) 4% by vol. of ABI1 dilution (protein stock solution was diluted so as to give, after addition, a final concentration in the assay of 0.15 μg ABI1/well), c) 4% by vol. of RCAR11 dilution (enzyme stock was diluted so as to give, on addition of the dilution to the enzyme buffer mix, a final concentration in the assay of 0.30 μg enzyme/well), d) 5% by vol. of Tween20 (1%), e) 47% by vol. H2O bi-dist. • 3) 20 μl of substrate mix, composed of a) 10% by vol. of 500 mM Tris-HCl pH8, b) 10% by vol. of 500 mM NaCl, c) 10% by vol. of 3.33 mM MnCl2, d) 5% by vol. of 25 mM MUP, 5% by vol. of Tween20 (1%), 60% by vol. of H2O bi-dist.
Enzyme buffer mix and substrate mix were made up 5 minutes prior to the addition and warmed to a temperature of 35° C. On completion of pipetting of all the solutions and on completion of mixing, the plate was incubated at 35° C. for 20 minutes. Finally, a relative fluorescence measurement was made at 35° C. with a BMG Labtech “POLARstar Optima” microplate reader using a 340/10 nm excitation filter and a 460 nm emission filter. The efficacy of the compounds of the general formula (I) is reported in the table which follows using abscisic acid […] as comparative substance (No. 37) according to the following classification: ++++ (inhibition≧90%), +++ (90%>inhibition≧70%), ++ (70%>inhibition≧50%), + (50%>inhibition≧30%). […]

Row | ABI1 inhibition | Compound
1 | + (50%>inhibition≧30%) | O=C1CCc2cc(NS(=O)(=O)Cc3ccc(F)cc3)ccc2N1CC1CC1(Cl)Cl (racemic) [A32-158]
2 | ++ (70%>inhibition≧50%) | O=C1CCc2cc(NS(=O)(=O)Cc3ccc(Cl)cc3)ccc2N1CC1CC1(Cl)Cl (racemic) [A32-165]
3 | ++++ (inhibition≧90%) | Cc1ccc(CS(=O)(=O)Nc2ccc3c(c2)CCC(=O)N3CC(F)F)cc1 [A1-152]
4 | ++++ (inhibition≧90%) | O=C1CCc2cc(NS(=O)(=O)Cc3ccc(Cl)cc3)ccc2N1CC(F)F [A1-165]
5 | ++ (70%>inhibition≧50%) | O=C1CCc2cc(NS(=O)(=O)Cc3cccc(Cl)c3)ccc2N1CC(F)F [A1-166]
6 | ++++ (inhibition≧90%) | O=C1CCc2cc(NS(=O)(=O)Cc3ccc(Br)cc3)ccc2N1CC(F)F [A1-172]
7 | ++ (70%>inhibition≧50%) | O=C1CCc2cc(NS(=O)(=O)Cc3cccc(Br)c3)ccc2N1CC(F)F [A1-173]
8 | +++ (90%>inhibition≧70%) | O=C1CCc2cc(NS(=O)(=O)Cc3ccc([N+](=O)[O-])cc3)ccc2N1CC(F)F [A1-175]
9 | ++++ (inhibition≧90%) | O=C1CCc2cc(NS(=O)(=O)Cc3ccc(C(F)(F)F)cc3)ccc2N1CC(F)F [A1-178]
10 | ++++ (inhibition≧90%) | N#Cc1ccc(CS(=O)(=O)Nc2ccc3c(c2)CCC(=O)N3CC(F)F)cc1 [A1-181]
11 | ++++ (inhibition≧90%) | O=C1CCc2cc(NS(=O)(=O)Cc3ccccc3)ccc2N1CC(F)(F)F [A2-151]
12 | ++++ (inhibition≧90%) | Cc1ccc(CS(=O)(=O)Nc2ccc3c(c2)CCC(=O)N3CC(F)(F)F)cc1 [A2-152]
13 | +++ (90%>inhibition≧70%) | Cc1cccc(CS(=O)(=O)Nc2ccc3c(c2)CCC(=O)N3CC(F)(F)F)c1 [A2-153]
14 | ++++ (inhibition≧90%) | O=C1CCc2cc(NS(=O)(=O)Cc3ccc(F)cc3)ccc2N1CC(F)(F)F [A2-158]
15 | ++++ (inhibition≧90%) | O=C1CCc2cc(NS(=O)(=O)Cc3ccc(Cl)cc3)ccc2N1CC(F)(F)F [A2-165]
16 | +++ (90%>inhibition≧70%) | O=C1CCc2cc(NS(=O)(=O)Cc3cccc(Cl)c3)ccc2N1CC(F)(F)F [A2-166]
17 | ++ (70%>inhibition≧50%) | O=C1CCc2cc(NS(=O)(=O)Cc3ccccc3Cl)ccc2N1CC(F)(F)F [A2-168]
18 | ++++ (inhibition≧90%) | O=C1CCc2cc(NS(=O)(=O)Cc3ccc(Br)cc3)ccc2N1CC(F)(F)F [A2-172]
19 | +++ (90%>inhibition≧70%) | O=C1CCc2cc(NS(=O)(=O)Cc3cccc(Br)c3)ccc2N1CC(F)(F)F [A2-173]
20 | ++++ (inhibition≧90%) | O=C1CCc2cc(NS(=O)(=O)Cc3ccc([N+](=O)[O-])cc3)ccc2N1CC(F)(F)F [A2-175]
21 | +++ (90%>inhibition≧70%) | O=C1CCc2cc(NS(=O)(=O)Cc3cccc([N+](=O)[O-])c3)ccc2N1CC(F)(F)F [A2-176]

Row | ABI1 inhibition | Compound
22 | +++ (90%>inhibition≧70%) | O=C1CCc2cc(NS(=O)(=O)Cc3ccccc3[N+](=O)[O-])ccc2N1CC(F)(F)F [A2-177]
23 | ++++ (inhibition≧90%) | O=C1CCc2cc(NS(=O)(=O)Cc3ccc(C(F)(F)F)cc3)ccc2N1CC(F)(F)F [A2-178]
24 | +++ (90%>inhibition≧70%) | O=C1CCc2cc(NS(=O)(=O)Cc3cccc(C(F)(F)F)c3)ccc2N1CC(F)(F)F [A2-179]
25 | ++++ (inhibition≧90%) | N#Cc1ccc(CS(=O)(=O)Nc2ccc3c(c2)CCC(=O)N3CC(F)(F)F)cc1 [A2-181]
26 | ++++ (inhibition≧90%) | Cc1ccc(CS(=O)(=O)Nc2ccc3c(c2)CCC(=O)N3CCC(F)(F)F)cc1 [A7-152]
27 | ++++ (inhibition≧90%) | O=C1CCc2cc(NS(=O)(=O)Cc3ccc(Cl)cc3)ccc2N1CCC(F)(F)F [A7-165]
28 | ++++ (inhibition≧90%) | N#Cc1ccc(CS(=O)(=O)Nc2ccc3c(c2)CCC(=O)N3CCC(F)(F)F)cc1 [A7-181]
29 | ++ (70%>inhibition≧50%) | N#Cc1cccc(CS(=O)(=O)Nc2ccc3c(c2)CCC(=O)N3CCC(F)(F)F)c1 [A7-182]
30 | ++++ (inhibition≧90%) | Cc1ccc(CS(=O)(=O)Nc2ccc3c(c2)CCC(=O)N3CC(F)(F)C(F)(F)F)cc1 [A10-152]
31 | ++++ (inhibition≧90%) | O=C1CCc2cc(NS(=O)(=O)Cc3ccc(Cl)cc3)ccc2N1CC(F)(F)C(F)(F)F [A10-165]
32 | ++++ (inhibition≧90%) | N#Cc1ccc(CS(=O)(=O)Nc2ccc3c(c2)CCC(=O)N3CC(F)(F)C(F)(F)F)cc1 [A10-181]
33 | ++ (70%>inhibition≧50%) | Cc1ccc(CS(=O)(=O)Nc2ccc3c(c2)CCC(=O)N3CC#N)cc1 [A16-152]
34 | ++ (70%>inhibition≧50%) | N#CCN1C(=O)CCc2cc(NS(=O)(=O)Cc3ccc(C(F)(F)F)cc3)ccc21 [A16-178]
35 | +++ (90%>inhibition≧70%) | Cc1cccc(CS(=O)(=O)Nc2ccc3c(c2)CCC(=O)N3CC2CC2)c1 [A19-153, N-[1-(Cyclopropylmethyl)-2-oxo-1,2,3,4-tetrahydroquinolin-6-yl]-1-(3-methylphenyl)methanesulfonamide]
36 | ++++ (inhibition≧90%) | O=C1CCc2cc(NS(=O)(=O)Cc3ccc(Cl)cc3)ccc2N1CC1CC1 [A19-165]
37 | ++++ (inhibition≧90%) | O=C1CCc2cc(NS(=O)(=O)Cc3ccc([N+](=O)[O-])cc3)ccc2N1CC1CC1 [A19-175]
38 | ++++ (inhibition≧90%) | CCc1ccc(CS(=O)(=O)Nc2ccc3c(c2)CCC(=O)N3CC2CC2)cc1 [A19-325, N-[1-(Cyclopropylmethyl)-2-oxo-1,2,3,4-tetrahydroquinolin-6-yl]-1-(4-ethylphenyl)methanesulfonamide]
39 | ++++ (inhibition≧90%) | CC(C)(C)c1ccc(CS(=O)(=O)Nc2ccc3c(c2)CCC(=O)N3CC2CC2)cc1 [A19-332]
40 | +++ (90%>inhibition≧70%) | CCc1ccc(S(=O)(=O)Nc2ccc3c(c2)CCC(=O)N3CC2CC2)cc1 [A19-601]
41 | ++++ (inhibition≧90%) | Cc1ccc(CS(=O)(=O)Nc2ccc3c(c2)CCC(=O)N3CC2CCC2)cc1 [A21-152]
42 | ++++ (inhibition≧90%) | O=C1CCc2cc(NS(=O)(=O)Cc3ccc(F)cc3)ccc2N1CC1CCC1 [A21-158]

Reference: patent US20170027172A1, “USE OF SUBSTITUTE OXO TETRAHYDROQUINOLINE SULFONAMIDES OR SALTS THEREOF FOR RAISING STRESS TOLERANCE OF PLANTS” (BAYER CROPSCIENCE AKTIENGESELLSCHAFT, priority 2014, published 2017)
